Measurements: US20110130374A1, “Small Pyrimidine Derivatives and Methods of Use Thereof” (BIOSEARCH(2007) LTD., priority 2009, published 2011)
Read-outs that look alike come from different tables or passages of the source.

Legend:
Assay type in all cases: cell-based
A375 melanoma cells [1] = experiment: Transwell cell migration assay, A375 melanoma cells; conditions: Homo sapiens, A-375
Description: A375 melanoma cells (CRL-1619, American Type Culture Collection (“ATCC”), Manassas Va., USA)) grown in RPMI medium supplement with 10% FBS were starved for 24 hours in FBS free medium. After starvation of 24 hr, 5×10^4 cells in FBS free medium were placed in the upper chamber of 24-well, Transwell apparatus (CORNING TRANS WELL® polycarbonate membrane inserts, 5 μm pore size) with solvent (DMSO/PEG400) or different concentrations of Compound 1 (PRT7000467), Compound 2 (PRT7041128), or Compound 3 (PRT7081582). Medium containing FBS and compounds was added to the bottom chamber. Twenty-four hours later the melanoma cells from the upper chamber were removed with a cotton swab. Cells that migrated to the lower side of the membrane were stained with Calcein-AM (Sigma) and images were taken with fluorescence microscope. The number of migrating cells was quantified by ImageJ software and the IC50 values were calculated using Prism software (Graphpad) (FIG. 1A,1E).
A375 (melanoma) (CRL-1619, ATCC, Manassas, Va., USA), A431 (melanoma) (CRL-2592, ATCC, Manassas, Va., USA), A2058 (melanoma) (CRL-11147, ATCC, Manassas, Va., USA), MDA-MB-231 (breast) (HTB-26, ATCC, Manassas, Va., USA), LS175T (colon) (ATCC, Manassas, Va., USA), HT29 (colon) (HTB-38, ATCC, Manassas, Va., USA), PC3 (prostate) (CRL-1435, ATCC, Manassas, Va., USA), Panc03.27 (pancreatic) (ATCC, Manassas, Va., USA), 4T1 (breast-mouse) (CRL-2539, ATCC, Manassas. Va., USA), D122 (lung-mouse) (the Weizmann Institute of Science), D122-luc (lung-mouse) (the Weizmann Institute of Science), and B16 F10.9 (melanoma-mouse) cells (Caliper Life Sciences, Hopkinton Mass.), were grown in RPMI medium supplemented with 10% FBS. HUVEC cells were grown in Endothelial Cell Growth Medium 2 and THP1 cells were grown in RPMI medium supplemented with 10% FBS, 2 mM L-Glutamine, 1.5 g/L sodium bicarbonate, 10 mM Hepes, 1 mM sodium pyruvate, 4.5 g/L glucose and 0.05 mM 2-mercaptoethanol. The cells were starved for 24 hours in medium without FBS. At the end of the starvation, 5×10^4 cells in medium without FBS were placed in the upper chamber of 24-well, Transwell apparatus (CORNING TRANSWELL® polycarbonate membrane inserts, 5 μm pore size for […] and THP1 cells and 8 μm pore size for all the other cells) with solvent (DMSO/PEG400) or different concentrations of compound 1 (PRT7000467). Medium with FBS and compounds was added to the bottom chamber. Twenty-four hours later the cells from the upper chamber were removed with a cotton swab. Cells that migrated to the lower side of the membrane were stained with Calcein-AM (Sigma) and images were taken with a fluorescence microscope. The number of migrating cells was quantified by ImageJ software and the IC50 values were calculated using Prism software (Graphpad).

A375 melanoma cells [2] = experiment: Soft agar colony formation, A375 melanoma cells; conditions: 14 days, MTT; for soft agar colony formation: A375 melanoma cells
Description: The assay was done using CYTOSELECT™ 96-Well In Vitro Tumor Sensitivity Assay kit from Cell Biolabs, Inc. (San-Diego, Calif.). The cells were grown for 14 days with RPMI and 10% FBS medium in the presence of the indicated concentration of Compound 1 (PRT7000467). The quantification of the colony formation on soft agar was done using MTT reagent after solubilization of the agar (all the materials are supplied in the kit). The IC50 value was calculated using Prism software.

A375 cells = experiment: Cell viability, WST-1 reagent, A375 cells grown in two-dimension; conditions: WST-1, 72 h post treatment
Description: Compound 1 (PRT7000467), Compound 2 (PRT7041128), and Compound 3 (PRT7081582) are not toxic to cells grown in two-dimension. A375 cells were cultured with RPMI and 10% FBS. The cells were treated with different concentrations of Compound 1 (PRT7000467) and Compound 2 (PRT7041128), then the viability of the cells was determined seventy-two hours post treatment using WST-1 reagent (Roche) (FIG. 1B)

[3] = A375 melanoma cells, Transwell 5 μm pore, 24 h, Example 3 (FIGS. 1A, 1E), read-out: IC50 in the migration assay

| SMILES | IC50 (A375 melanoma cells [1]; [3]) | soft agar colony formation (A375 melanoma cells [2]) | toxicity to cells grown in two-dimension (A375 cells) | IC50 (A375 melanoma cells [1]; A375, Melanoma, reexamined, Table 1, 6 repeats, read-out: IC50 (μM), Transwell migration) | LD50 in the soft agar colony formation assay (A375 melanoma cells [2]; A375 cells) |
| --- | --- | --- | --- | --- | --- |
| Cc1cc(S(=O)(=O)Nc2ncccn2)ccc1NC(=O)/C(=C\c1cccs1)NC(=O)c1cccs1 [Compound 3] | 1.41 µM | inhibit soft agar colony formation | not toxic |  |  |
| Cc1cc(C)nc(NS(=O)(=O)c2ccc(NC(=O)/C(=C\c3cccs3)NC(=O)c3cccs3)cc2)n1 [Compound 1] | 5.7 µM | inhibits soft agar colony formation | not toxic | 1.7 µM | 2.8 to 5.6 µM |
